Laboratory results from patent publication US20050170391A1, “TAUT1 transporters expressed in blood brain barrier cells” (Xenoport, Inc., priority 2004, published 2005).

What was measured:
TAUT1 = target: T1, TAUT1 (Homo sapiens, UniProt P31641); experiment: hTAUT1 direct uptake assay in HEK-TREx-TAUT1 cells (LC-MS-MS); format: cell-based; parameters: expressed in transfected cells; host or cells: HEK-TREx cells (HEK-TREx-TAUT1 inducible line); conditions: direct uptake into HEK-TREx-TAUT1 cells, +TET minus no TET; 15 min, room temperature
T1 sequence (P31641 1-620): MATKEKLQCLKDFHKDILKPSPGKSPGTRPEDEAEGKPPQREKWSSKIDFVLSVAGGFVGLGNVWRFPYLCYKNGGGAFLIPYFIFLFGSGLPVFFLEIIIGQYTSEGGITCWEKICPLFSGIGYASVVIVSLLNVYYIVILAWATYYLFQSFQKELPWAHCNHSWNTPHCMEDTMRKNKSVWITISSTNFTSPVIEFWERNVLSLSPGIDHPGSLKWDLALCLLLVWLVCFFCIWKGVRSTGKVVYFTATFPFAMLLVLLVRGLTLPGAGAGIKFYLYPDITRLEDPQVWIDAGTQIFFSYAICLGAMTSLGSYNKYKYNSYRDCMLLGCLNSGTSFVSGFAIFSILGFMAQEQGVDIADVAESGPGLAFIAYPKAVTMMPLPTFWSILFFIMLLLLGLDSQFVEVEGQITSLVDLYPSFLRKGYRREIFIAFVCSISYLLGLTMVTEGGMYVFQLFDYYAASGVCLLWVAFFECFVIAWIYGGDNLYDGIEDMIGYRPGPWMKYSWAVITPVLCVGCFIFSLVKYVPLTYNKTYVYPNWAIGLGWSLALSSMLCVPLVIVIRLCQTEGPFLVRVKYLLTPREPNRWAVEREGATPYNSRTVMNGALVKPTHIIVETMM
Method: A modified direct uptake assay was developed to determine the ability of test compounds to be transported into HEK-TREx cells induced to over-express hTAUT. Four concentrations (bracketing the affinity as measured by competition assays) per compound were routinely tested. Non-specific uptake was determined by measuring the uptake into cells not induced to express the transporter (“no tet”).
Typically, four concentrations bracketing the IC50 were tested. The highest test concentration for each compound was made in an eppendorf tube and diluted into HBSS. The samples were robustly vortexed and centrifuged for 10 minutes at 13,200 rpm to spin down any precipitate. […] Three additional 2-fold dilutions were made in the subsequent rows (B-D or […]) in HBSS.
An internal standard of 50 μM propranolol in 50:50 ethanol:water was also prepared. To prepare standard curves, several concentrations of the test compounds were diluted into HEK cell extract (prepared from tet-treated, mock-incubated and extracted cells as described below) with a final internal standard concentration of 5 μM. Standards of 10, 5, 1, 0.5, 0.1, 0.05, 0.01 and 0.005 μM were routinely run for each test compound.
HEK-TREx-hTAUT cells were plated in 96-well plates and treated with plus (columns 1-3 and 7-9) or without tetracycline (or a tetracycline analog; columns 4-6 and 10-12). The cells were removed from the incubator, and the growth media was removed from the cells. The cells were washed twice in room temperature HBSS (100 μl/well/wash) using a 96-well plate washer (Bio Tek ELX405). Alternatively, cells were washed manually with equivalent volumes using a multichannel pipettor. Immediately before the assay was begun, the final 100 μl wash solution was removed from the cells. The assay was started by using a 96-well pipettor to add 50 μl from the “compound” plate to each well of the HEK-TREx-hTAUT cell plate. The plate was incubated at room temperature for 15 minutes.
After the final wash, as much of the wash buffer as possible was removed by aspirating the wells with a probe that reached the bottom of the wells. (Residual salts from the wash buffer can adversely affect the LC-MS-MS by disrupting the LC method or by suppressing the MS signal.) 150 μl of a 50:50 ethanol:water solution was added to each well to lyse the cells and extract the test compound. The plate was covered and allowed to sit for 20 minutes at room temperature to ensure cell lysis. (The 50% ethanol solution is the generic solution for extraction. For compounds soluble in water or other solvents compatible with the LC-MS-MS, such solutions can be tried to determine they interfere with the LC-MS-MS analysis. If the organic solvent concentration is too high (>50%), it may be detrimental to the LC run).
120 μl of the cell extract was removed from each well and transferred to a fresh 96-well v-bottom polypropylene plate. This plate was covered with an adherent cover (top seal) and centrifuged for 15 minutes at 5,700 rpm (Allegra 25R centrifuge) at 4° C. to pellet any cell precipitate. 10 μl of the 50 μM propranolol solution was added to each well of a fresh 96-well plate (a plate amenable for sampling in the LC-MS-MS). 90 μl of the supernatant from the centrifuged cell extract was removed and transferred to the plate containing the 10 μl of propranolol (using the Cybi-well 96-well pipettor). The sample plate with a bubble lid suitable for use with the LC-MS-MS and placed on a plate shaker for 5 to 10 minutes to mix the sample and the propranolol. The samples were submitted for LC-MS-MS analysis. The levels of intracellular compounds were determined by converting the peak area to concentration by extrapolating from the standard curve for each compound. Uptake was expressed as μM/well.
While the uptake values in these experiments were expressed as “μM/well”, the values can be easily converted to “pmol/well” or “pmol/well/unit time”. All of the samples were extracted with 150 μl of extraction buffer.

[1] = target: T2, mouse homolog of the transporter (TAUT1) (Mus musculus, UniProt O35316); conditions: literature IC50, mouse homolog of the transporter; read-out: Literature Km or IC50; cited from earlier work
T2 sequence (O35316 1-621): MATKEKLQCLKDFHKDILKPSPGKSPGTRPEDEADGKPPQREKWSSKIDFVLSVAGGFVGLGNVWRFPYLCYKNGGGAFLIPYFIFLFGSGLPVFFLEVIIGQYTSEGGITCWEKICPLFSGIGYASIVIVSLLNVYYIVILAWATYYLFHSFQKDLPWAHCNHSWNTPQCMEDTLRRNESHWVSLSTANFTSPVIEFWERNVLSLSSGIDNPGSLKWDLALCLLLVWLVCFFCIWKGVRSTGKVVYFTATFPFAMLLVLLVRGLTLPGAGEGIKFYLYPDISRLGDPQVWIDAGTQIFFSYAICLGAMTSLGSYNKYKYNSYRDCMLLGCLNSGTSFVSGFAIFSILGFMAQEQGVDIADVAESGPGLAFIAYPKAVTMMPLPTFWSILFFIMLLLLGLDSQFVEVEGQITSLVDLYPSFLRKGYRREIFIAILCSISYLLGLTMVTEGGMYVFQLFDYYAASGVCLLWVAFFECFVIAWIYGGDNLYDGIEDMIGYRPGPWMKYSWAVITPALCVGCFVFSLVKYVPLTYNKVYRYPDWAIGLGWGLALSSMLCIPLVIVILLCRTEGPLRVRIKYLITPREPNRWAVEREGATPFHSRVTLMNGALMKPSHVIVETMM

| SMILES | Vmax (TAUT1) | IC50 [1] | Km (TAUT1) | pKm (TAUT1) |
| --- | --- | --- | --- | --- |
| NCCCC(=O)O [GABA, γ-aminobutyric acid] | 12 μM/well | 500 µM | – | – |
| N=C(N)NCCC(=O)O [GPA] | 6.4 μM/well | 120 µM | 120 µM | 4.0 |
| O=C(O)Cc1c[nH]cn1 [IAA, 4-imidazole acetic acid] | 6.1 μM/well | – | – | – |
| NCC(CC(=O)O)c1ccc(Cl)cc1 (stereo not shown) [R,S-Baclofen] | 5.4 μM/well | – | 1700 µM | 2.9 |
